Data as given in PMC11233931, “Remodeling tumor‐associated macrophage for anti‐cancer effects by rational design of irreversible inhibition of mitogen‐activated protein kinase‐activated protein kinase 2” (MedComm, 2024).
Read-outs that look alike come from different tables or passages of the source.

Assays:
Assay in all cases: Eurofins kinase selectivity profile against 380 other human recombinant kinases (Table S2)
Assay type in all cases: biochemical
[1] = target: T1, 380 human recombinant protein kinases (Homo sapiens, UniProt Q00536); conditions: CDK16/cyclinY(h), read-out: Inhibition rate
T1 construct: purchased Eurofins (Celle Lévescault)
T1 sequence (Q00536 whole entry): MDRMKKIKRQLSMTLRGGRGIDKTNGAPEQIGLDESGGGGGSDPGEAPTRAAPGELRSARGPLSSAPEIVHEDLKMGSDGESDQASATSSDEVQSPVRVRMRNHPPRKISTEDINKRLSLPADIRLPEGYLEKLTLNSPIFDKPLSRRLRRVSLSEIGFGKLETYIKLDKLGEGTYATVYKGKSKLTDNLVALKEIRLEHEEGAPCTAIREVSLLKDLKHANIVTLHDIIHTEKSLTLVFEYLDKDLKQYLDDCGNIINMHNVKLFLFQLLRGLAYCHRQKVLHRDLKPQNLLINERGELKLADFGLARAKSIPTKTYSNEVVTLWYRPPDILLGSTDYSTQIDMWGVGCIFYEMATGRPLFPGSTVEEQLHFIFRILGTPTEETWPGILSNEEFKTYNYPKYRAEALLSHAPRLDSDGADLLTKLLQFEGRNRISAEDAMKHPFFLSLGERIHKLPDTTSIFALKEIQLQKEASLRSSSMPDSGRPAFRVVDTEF
How it was run: (§1)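 Selectivity panel of 380 human recombinant protein kinases, screened by Eurofins at a range of concentrations.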

[2] = target: T2, 380 human recombinant protein kinases (Homo sapiens, UniProt Q9Y463); conditions: DYRK1B(h), read-out: Inhibition rate
T2 construct: purchased Eurofins (Celle Lévescault)
How it was run: as §1

[3] = target: T3, 380 human recombinant protein kinases (Homo sapiens, UniProt P42336); conditions: read-out: Inhibition rate (%); for inhibition at 0.01 µM: 10 nM; for inhibition at 0.1 µM: 100 nM; for inhibition at 1 µM: 1000 nM
T3 construct: purchased Eurofins (Celle Lévescault)
T3 sequence (P42336 whole entry): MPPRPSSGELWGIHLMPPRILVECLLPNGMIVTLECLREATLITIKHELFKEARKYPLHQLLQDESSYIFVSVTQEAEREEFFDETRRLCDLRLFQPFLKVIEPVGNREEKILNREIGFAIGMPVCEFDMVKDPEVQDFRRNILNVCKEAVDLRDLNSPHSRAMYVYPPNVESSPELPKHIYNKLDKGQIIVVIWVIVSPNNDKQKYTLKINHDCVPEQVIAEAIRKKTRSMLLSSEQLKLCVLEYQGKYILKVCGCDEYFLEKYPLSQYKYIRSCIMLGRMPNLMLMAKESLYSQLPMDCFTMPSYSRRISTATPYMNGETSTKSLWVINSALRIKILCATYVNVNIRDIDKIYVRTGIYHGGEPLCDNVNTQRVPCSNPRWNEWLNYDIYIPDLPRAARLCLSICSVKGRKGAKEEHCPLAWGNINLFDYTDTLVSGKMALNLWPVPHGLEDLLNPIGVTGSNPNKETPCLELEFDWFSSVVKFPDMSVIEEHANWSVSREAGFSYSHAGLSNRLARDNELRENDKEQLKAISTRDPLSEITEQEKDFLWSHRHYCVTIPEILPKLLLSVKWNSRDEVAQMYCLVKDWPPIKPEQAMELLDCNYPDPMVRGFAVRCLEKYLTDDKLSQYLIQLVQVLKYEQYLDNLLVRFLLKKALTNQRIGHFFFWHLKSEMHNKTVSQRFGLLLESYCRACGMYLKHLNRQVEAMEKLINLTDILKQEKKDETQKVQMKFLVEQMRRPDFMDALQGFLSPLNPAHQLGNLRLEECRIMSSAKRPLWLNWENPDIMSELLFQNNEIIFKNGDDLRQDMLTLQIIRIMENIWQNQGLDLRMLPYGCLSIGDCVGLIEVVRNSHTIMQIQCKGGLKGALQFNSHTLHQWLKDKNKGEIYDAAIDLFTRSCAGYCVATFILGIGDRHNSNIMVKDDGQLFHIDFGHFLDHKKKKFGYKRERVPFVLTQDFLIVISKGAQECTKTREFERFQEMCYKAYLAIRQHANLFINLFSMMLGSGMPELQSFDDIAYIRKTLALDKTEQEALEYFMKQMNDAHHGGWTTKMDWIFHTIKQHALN
How it was run: as §1

[4] = target: T4, 380 human recombinant protein kinases (Homo sapiens, UniProt P36897); conditions: TGFBR1(h), read-out: Inhibition rate (%)
T4 construct: purchased Eurofins (Celle Lévescault)
T4 sequence (P36897 34-503): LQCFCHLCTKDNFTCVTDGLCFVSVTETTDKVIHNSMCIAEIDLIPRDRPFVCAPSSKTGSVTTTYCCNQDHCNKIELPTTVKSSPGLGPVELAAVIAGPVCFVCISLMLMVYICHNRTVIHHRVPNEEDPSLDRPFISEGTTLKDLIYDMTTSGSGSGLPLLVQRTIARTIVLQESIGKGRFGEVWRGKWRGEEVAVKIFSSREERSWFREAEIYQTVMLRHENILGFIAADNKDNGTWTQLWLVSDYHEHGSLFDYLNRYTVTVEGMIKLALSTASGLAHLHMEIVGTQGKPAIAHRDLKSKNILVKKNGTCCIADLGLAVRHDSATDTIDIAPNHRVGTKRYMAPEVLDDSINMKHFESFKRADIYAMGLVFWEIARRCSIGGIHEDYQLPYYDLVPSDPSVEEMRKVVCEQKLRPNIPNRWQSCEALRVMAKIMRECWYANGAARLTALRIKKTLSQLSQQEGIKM
How it was run: as §1

[5] = target: T5, 380 human recombinant protein kinases (Homo sapiens, UniProt Q02156); conditions: PKCε(h), read-out: Inhibition rate
T5 construct: purchased Eurofins (Celle Lévescault)
T5 sequence (Q02156 1-737): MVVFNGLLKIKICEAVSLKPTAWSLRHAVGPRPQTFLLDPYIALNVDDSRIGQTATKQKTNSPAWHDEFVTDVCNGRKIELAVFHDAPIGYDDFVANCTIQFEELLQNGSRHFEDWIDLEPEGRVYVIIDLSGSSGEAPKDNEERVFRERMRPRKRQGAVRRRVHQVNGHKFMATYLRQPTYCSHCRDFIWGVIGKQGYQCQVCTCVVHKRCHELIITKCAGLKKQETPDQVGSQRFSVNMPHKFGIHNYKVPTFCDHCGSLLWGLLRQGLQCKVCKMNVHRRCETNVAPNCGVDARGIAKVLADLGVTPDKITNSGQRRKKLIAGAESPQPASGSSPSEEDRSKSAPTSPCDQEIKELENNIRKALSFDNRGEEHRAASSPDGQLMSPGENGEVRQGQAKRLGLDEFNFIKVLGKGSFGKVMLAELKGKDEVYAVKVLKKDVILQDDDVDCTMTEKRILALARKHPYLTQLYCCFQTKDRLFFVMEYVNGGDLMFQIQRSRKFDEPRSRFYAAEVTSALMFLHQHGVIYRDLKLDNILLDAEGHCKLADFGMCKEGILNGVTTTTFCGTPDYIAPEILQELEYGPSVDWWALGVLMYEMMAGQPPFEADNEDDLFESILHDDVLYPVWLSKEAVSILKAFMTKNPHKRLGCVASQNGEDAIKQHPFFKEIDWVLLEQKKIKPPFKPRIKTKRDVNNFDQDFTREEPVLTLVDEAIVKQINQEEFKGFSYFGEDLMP
How it was run: as §1

[6] = target: T6, 380 human recombinant protein kinases (Homo sapiens, UniProt P04049); conditions: c-RAF(h), read-out: Inhibition rate
T6 construct: purchased Eurofins (Celle Lévescault)
T6 sequence (P04049 whole entry): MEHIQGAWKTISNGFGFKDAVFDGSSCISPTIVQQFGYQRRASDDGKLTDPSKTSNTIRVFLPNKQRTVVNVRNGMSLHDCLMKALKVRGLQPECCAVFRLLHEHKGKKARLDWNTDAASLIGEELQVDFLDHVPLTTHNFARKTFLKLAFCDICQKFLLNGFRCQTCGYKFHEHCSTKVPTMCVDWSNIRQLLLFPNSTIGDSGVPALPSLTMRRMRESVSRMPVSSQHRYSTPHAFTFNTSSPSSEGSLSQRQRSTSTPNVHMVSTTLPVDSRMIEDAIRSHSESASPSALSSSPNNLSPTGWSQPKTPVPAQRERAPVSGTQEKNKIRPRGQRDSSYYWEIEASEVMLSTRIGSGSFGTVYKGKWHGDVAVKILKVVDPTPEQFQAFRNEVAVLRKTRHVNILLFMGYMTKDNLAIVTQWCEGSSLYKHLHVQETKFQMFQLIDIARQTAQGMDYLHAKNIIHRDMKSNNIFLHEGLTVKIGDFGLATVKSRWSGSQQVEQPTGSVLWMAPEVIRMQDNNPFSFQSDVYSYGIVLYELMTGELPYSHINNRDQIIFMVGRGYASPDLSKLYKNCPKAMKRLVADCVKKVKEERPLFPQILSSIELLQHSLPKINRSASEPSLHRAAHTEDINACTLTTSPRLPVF
How it was run: as §1

[7] = target: T7, 380 human recombinant protein kinases (Homo sapiens, UniProt O75460); conditions: IRE1(h), read-out: Inhibition rate
T7 construct: purchased Eurofins (Celle Lévescault)
T7 sequence (O75460 19-977): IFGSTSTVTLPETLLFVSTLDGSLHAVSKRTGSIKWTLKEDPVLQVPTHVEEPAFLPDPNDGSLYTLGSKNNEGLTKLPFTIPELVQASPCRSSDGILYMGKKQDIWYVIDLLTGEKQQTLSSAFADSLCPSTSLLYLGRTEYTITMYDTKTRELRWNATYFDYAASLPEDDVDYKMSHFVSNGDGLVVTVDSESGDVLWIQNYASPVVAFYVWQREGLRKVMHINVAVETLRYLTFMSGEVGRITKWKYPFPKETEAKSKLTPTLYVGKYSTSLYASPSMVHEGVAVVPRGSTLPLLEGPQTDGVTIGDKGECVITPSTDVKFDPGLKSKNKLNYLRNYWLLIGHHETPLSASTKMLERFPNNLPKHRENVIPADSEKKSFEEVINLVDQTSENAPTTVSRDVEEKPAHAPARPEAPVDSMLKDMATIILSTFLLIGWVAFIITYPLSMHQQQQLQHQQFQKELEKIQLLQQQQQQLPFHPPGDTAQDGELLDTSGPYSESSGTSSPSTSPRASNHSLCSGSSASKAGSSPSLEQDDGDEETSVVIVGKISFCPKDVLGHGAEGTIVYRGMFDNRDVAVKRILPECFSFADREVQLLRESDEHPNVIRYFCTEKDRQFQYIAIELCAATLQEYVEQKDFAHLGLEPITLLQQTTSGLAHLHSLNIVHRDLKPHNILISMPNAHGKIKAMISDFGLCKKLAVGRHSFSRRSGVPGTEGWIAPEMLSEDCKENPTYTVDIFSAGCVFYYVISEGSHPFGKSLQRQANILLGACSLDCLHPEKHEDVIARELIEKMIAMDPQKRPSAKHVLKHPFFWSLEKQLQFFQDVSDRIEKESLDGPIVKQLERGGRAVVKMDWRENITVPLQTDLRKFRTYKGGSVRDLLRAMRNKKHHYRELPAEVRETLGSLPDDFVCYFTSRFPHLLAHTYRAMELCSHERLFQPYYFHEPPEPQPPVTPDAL
How it was run: as §1

[8] = target: T8, 380 human recombinant protein kinases (Homo sapiens, UniProt Q15119); conditions: PDHK2(h), read-out: Inhibition rate
T8 construct: purchased Eurofins (Celle Lévescault)
How it was run: as §1

[9] = target: T9, 380 human recombinant protein kinases (Homo sapiens, UniProt Q8N5S9); conditions: CaMKK1(h), read-out: Inhibition rate
T9 construct: purchased Eurofins (Celle Lévescault)
T9 sequence (Q8N5S9 whole entry): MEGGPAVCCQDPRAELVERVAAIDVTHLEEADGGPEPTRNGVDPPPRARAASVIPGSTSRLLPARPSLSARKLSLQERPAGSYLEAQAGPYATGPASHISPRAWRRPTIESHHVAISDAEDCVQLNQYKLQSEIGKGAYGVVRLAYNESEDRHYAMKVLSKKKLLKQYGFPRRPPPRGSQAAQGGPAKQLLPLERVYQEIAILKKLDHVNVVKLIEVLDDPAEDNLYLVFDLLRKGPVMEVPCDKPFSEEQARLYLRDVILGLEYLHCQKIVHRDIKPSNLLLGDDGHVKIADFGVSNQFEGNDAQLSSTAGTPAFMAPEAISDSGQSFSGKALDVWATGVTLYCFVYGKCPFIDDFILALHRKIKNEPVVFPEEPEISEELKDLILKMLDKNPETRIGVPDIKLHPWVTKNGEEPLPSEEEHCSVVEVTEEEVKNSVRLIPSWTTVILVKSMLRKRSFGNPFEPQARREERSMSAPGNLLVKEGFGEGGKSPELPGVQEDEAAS
How it was run: as §1

[10] = target: T10, 380 human recombinant protein kinases (Homo sapiens, UniProt P42338); conditions: PI3 Kinase (p110β/p85α)(h), read-out: Inhibition rate (%)
T10 construct: purchased Eurofins (Celle Lévescault)
T10 sequence (P42338 whole entry): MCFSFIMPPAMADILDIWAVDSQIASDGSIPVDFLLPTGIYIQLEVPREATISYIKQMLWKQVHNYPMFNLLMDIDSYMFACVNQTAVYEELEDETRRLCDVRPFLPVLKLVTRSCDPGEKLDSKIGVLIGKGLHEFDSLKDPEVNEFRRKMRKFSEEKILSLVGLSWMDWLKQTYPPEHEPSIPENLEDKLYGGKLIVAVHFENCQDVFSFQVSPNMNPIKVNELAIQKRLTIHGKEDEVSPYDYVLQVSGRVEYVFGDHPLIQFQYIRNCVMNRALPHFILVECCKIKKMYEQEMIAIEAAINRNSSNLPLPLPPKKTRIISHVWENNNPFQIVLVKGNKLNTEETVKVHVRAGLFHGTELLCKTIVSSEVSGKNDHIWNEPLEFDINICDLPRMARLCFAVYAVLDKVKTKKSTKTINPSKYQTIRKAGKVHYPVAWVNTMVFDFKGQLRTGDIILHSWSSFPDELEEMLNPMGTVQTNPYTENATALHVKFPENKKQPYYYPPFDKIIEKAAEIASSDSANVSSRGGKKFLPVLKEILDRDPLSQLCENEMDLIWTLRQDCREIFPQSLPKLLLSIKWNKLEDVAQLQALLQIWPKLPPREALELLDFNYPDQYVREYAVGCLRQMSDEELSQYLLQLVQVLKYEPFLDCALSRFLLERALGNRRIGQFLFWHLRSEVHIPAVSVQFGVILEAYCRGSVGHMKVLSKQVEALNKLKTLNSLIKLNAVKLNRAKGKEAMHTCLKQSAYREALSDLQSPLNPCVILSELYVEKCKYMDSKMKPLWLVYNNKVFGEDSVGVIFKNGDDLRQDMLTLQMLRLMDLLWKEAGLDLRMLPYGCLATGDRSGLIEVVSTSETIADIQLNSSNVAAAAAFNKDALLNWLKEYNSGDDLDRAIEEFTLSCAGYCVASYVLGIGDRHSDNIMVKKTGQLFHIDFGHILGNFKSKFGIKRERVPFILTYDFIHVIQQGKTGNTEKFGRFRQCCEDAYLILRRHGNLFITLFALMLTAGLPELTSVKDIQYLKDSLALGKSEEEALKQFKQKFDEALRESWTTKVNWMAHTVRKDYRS
How it was run: as §1

C=CC(=O)Nc1cc(-c2cc(-c3cc4c([nH]3)CCNC4=O)ccn2)ccc1OC(F)(F)F [compound 11]
inhibition at 0.01 µM ([1]; 10 nM): -1%
inhibition at 0.1 µM ([1]; 100 nM): 7%
inhibition at 1 µM ([1]; 1000 nM): -13%
inhibition at 0.01 µM ([2]; 10 nM): 21%
inhibition at 0.1 µM ([2]; 100 nM): 77%
inhibition at 1 µM ([2]; 1000 nM): 97%
inhibition at 0.01 µM ([3]; PI3 Kinase (p110α/p65α)(h)): 3%
inhibition at 0.1 µM ([3]; PI3 Kinase (p110α/p65α)(h)): 0%
inhibition at 1 µM ([3]; PI3 Kinase (p110α/p65α)(h)): 1%
inhibition at 0.01 µM ([3]; PI3 Kinase (p110α/p85α)(h)): -1%
inhibition at 0.1 µM ([3]; PI3 Kinase (p110α/p85α)(h)): 0%
inhibition at 1 µM ([3]; PI3 Kinase (p110α/p85α)(h)): -1%
inhibition at 0.01 µM ([4]; 10 nM): -7%
inhibition at 0.1 µM ([4]; 100 nM): -2%
inhibition at 1 µM ([4]; 1000 nM): -4%
inhibition at 0.01 µM ([5]; 10 nM): 1%
inhibition at 0.1 µM ([5]; 100 nM): 12%
inhibition at 1 µM ([5]; 1000 nM): 13%
inhibition at 0.01 µM ([6]; 10 nM): -1%
inhibition at 0.1 µM ([6]; 100 nM): 2%
inhibition at 1 µM ([6]; 1000 nM): 1%
inhibition at 0.01 µM ([7]; 10 nM): 0%
inhibition at 0.1 µM ([7]; 100 nM): -2%
inhibition at 1 µM ([7]; 1000 nM): 0%
inhibition at 0.01 µM ([8]; 10 nM): -8%
inhibition at 0.1 µM ([8]; 100 nM): 6%
inhibition at 1 µM ([8]; 1000 nM): 0%
inhibition at 0.01 µM ([9]; 10 nM): -7%
inhibition at 0.1 µM ([9]; 100 nM): 4%
inhibition at 1 µM ([9]; 1000 nM): 11%
inhibition at 0.01 µM ([10]; 10 nM): -1%
inhibition at 0.1 µM ([10]; 100 nM): -1%
inhibition at 1 µM ([10]; 1000 nM): -1%
